Source: patent US11510886B2, “Metformin amino acid compounds and methods of using the same” (Laboratorios Silancs S.A. DE C.V., priority 2016, dated 2022)
Entries after “also recorded” stand apart in the source; their conditions may differ. Counter-ions that a name gives are not always drawn. Like-named read-outs stand apart in the source and are kept apart here.

Experiments:
[1] = tested on: GPBP and VAPA; assay: Colocalization of GPBP with VAPA in C2C12 cells; assay type: cell-based, Mice; settings: C2C12, 10 mM, 16 hours; p=0.0093 Control vs. SLN1, p=0.0001 Control vs. SLN10, p=0.0283 SLN10 vs SLN1
Method: FIG. 74A. […] In FIG. 74A, C2C12 cells were differentiated for 3 days in DMEM supplemented with 2% horse serum. […] Subsequently, cells were washed with PBS (3×5 minutes) and incubated with mouse secondary anti-IgG antibodies, conjugated with Alexa Fluor 488, and goat anti-IgG antibodies, conjugated with TRITC (Molecular Probes) for 1 hour at RM in the dark; then, cells were washed again with PBS (3×5 minutes) and mounted for confocal microscopy observation. Afterwards, the images obtained were analyzed with the WCIF ImageJ software to quantify colocalization quotient between GPBP and VAPA. In the third column, the points at which there are similar expression levels of both GPBP and VAPA appear in white.

[2] = biological target: T1, GPBP, LKB1/STRADα/MO25, AMPK, AS160 (Homo sapiens, UniProt Q9Y5P4); assay: In vitro phosphorylation of GPBP with LKB1 complex, AMPK and AS160
T1 sequence (Q9Y5P4 1-624): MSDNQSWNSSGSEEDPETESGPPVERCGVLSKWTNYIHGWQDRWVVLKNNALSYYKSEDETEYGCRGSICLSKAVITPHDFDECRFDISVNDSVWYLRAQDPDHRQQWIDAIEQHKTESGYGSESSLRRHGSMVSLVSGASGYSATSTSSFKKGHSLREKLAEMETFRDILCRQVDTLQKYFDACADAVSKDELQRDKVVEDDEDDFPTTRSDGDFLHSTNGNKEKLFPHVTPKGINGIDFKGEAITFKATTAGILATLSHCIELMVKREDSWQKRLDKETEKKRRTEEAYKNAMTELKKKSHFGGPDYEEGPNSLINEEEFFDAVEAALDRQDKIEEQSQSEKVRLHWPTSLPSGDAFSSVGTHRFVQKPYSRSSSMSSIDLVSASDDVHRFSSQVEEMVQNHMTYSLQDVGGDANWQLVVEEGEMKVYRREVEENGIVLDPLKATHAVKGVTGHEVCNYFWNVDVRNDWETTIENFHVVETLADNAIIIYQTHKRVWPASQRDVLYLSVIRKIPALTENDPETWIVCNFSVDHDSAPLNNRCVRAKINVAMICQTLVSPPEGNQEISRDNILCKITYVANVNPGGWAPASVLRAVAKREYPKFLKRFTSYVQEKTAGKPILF
Source text: Reactions were stopped with a reducing loading buffer, analyzed by SDS-PAGE, and electrotransferred to PVDF membrane. Membranes were exposed to autoradiography during the indicated exposition times (exp.). Arrows show the identity of the bands observed in autoradiographs.
Arrows and lines to the right of the image show the identity of phosphorylated polypeptides. Upper images and those in the middle come from autoradiographs taken at several exposure times.
To understand this phenomenon at the molecular level, we conducted in vitro phosphorylation experiments with GPBP and the commercial protein complex LKB1/STRADα/MO25 (Millipore) (FIG. 72). STRADα and MO25 are supporters necessary to activate LKB1. […] It cannot be excluded, however, that the simple interaction of kinases activates corresponding autophosphorylation processes.
To further explain the above results, a more physiological approach in the in vitro assays was performed. A combination of LKB1/STRADα, GPBP, and AMPK/AS160 was used, i.e., each kinase was added with its own substrate except GPBP, which acted as both an enzyme and substrate at the same time (autophosphorylation) (FIG. 73).

[3] = biological target: T2, GPBP (Mus musculus, UniProt Q9EQG9); assay: GPBP phosphorylation state in C2C12 myotubes (Western blot); assay type: cell-based, Mice; settings: 3 hours (FIG. 65)
T2 construct: endogenous in cells; host or cells: C2C12 myotubes
T2 sequence (Q9EQG9 1-624): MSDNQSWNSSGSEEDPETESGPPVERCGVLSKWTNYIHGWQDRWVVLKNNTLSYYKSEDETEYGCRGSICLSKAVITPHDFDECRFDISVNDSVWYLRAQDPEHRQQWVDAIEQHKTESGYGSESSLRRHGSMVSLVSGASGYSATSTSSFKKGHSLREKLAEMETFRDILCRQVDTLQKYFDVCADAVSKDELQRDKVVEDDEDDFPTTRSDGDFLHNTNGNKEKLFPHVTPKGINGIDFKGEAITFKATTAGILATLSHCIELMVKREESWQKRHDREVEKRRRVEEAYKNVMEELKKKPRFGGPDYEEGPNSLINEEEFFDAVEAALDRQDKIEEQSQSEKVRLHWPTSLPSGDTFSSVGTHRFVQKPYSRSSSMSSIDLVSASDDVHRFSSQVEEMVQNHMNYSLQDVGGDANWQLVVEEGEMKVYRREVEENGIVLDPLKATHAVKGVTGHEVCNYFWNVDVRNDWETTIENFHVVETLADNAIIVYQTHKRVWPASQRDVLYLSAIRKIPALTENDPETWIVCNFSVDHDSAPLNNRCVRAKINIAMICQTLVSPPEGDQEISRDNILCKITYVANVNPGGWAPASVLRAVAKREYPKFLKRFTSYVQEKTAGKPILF
Method: FIG. 65. […]. Similar quantities of each extract were analyzed using Western blot (SDS-PAGE and electrotransfer), with the indicated antibodies and chemiluminescence (ECL Prime, GE Healthcare). The arrow marks a dephosphorylated band, with higher abundance in SLN10-treated cells than in non-treated or SLN1-treated cells.

[4] = tested on: LKB1 and GPBP; assay: LKB1 and GPBP distribution in C2C12 myotubes (confocal microscopy); assay type: cell-based, Mice; settings: 10 mM, 3 hours (FIG. 71)
Method: FIG. 71. […] C2C12 cells were differentiated to myotubes for 5 days by incubation in DMEM medium, supplemented with 2% horse serum; […]. Cells were washed with PBS (3×5 minutes) and incubated with antibodies against mouse IgG, conjugated with Alexa Fluor 488, and against goat IgG, conjugated with Alexa Fluor 546 (Molecular Probes) for 1 hour at RM in the dark. In this and in the following Figures showing confocal microscopy of cell cultures, all antibodies used were diluted in blocking solution. After incubation with antibodies, cells were washed with PBS (3×5 minutes) and mounting medium (Dako) in glass slides. Preparations were visualized with confocal microscopy and obtained images were analyzed with the WCIF ImageJ software as to detect colocalization points between GPBP and LKB1. GPBP appears in green, LKB1 in red, and colocalization points indicating similar and corresponding expression levels in both proteins appear in white.

CN(C)C(=N)N=C(N)N [Metformin hydrochloride, metformin hydrochloride, reference compound]
colocalization of GPBP with VAPA [1]: reduced significantly
Body weight (g) On administration day (rat, in vivo, 250 mg/kg): 190.39 ± 9.88 g
Body weight (g) On distribution day (rat, in vivo, 250 mg/kg): 186.93 ± 10.39 g
Body weight (g) On distribution day (rat, in vivo, 750 mg/kg): 189.03 ± 15.13 g
GPBP autophosphorylation in presence of LKB1 mix, AMPK and AS160 [2]: activates GPBP phosphorylation; also recorded: stimulated GPBP autophosphorylation
GPBP phosphorylation state in myotubes [3]: barely altered the phosphorylation state
distribution of LKB1-GPBP aggregates [4]: moved LKB1-GPBP aggregates from peripheral positions to areas around the nuclei

metformin lysinate
colocalization of GPBP with VAPA [1]: reduced significantly; also recorded: more intensely than SLN1
blood glucose level of animal ID93 (750 mg/kg, fifth day, six hours after the glucose overload): 16 mg/dL
Body weight (g) On administration day (Groups B-K, 250 mg/kg, Mean ± SD): 189.83 ± 11.17 g
Body weight (g) On distribution day (Groups B-K, 250 mg/kg, before dosing, Mean ± SD): 184.42 ± 11.94 g
Body weight (g) On distribution day (Groups L-U, 750 mg/kg, before dosing, Mean ± SD): 186.73 ± 8.05 g
Body weight (g) On first administration day (Groups L-U, 750 mg/kg, first column of this head, Mean ± SD): 203.38 ± 13.38 g
Body weight (g) On first administration day (Groups L-U, 750 mg/kg, second column of this head, Mean ± SD): 192.83 ± 9.65 g
mortality and clinical signs (glucokinetic groups, 750 mg/kg for five days, 750 mg/kg): hypothermia, lack of activity and tear excess
mortality and clinical signs (glucokinetic groups, 750 mg/kg for five days, listed as metformin lysinate, 750 mg/kg): severe hypoglycemia
mortality and clinical signs (pharmacokinetic assay, single 250 mg/kg): respiratory noises
GPBP autophosphorylation in presence of LKB1 mix, AMPK and AS160 ([2]; FIG. 73, listed as SLN10): inhibit it increasingly; also recorded: inhibited it progressively
incorporation of phosphate by LKB1/STRADα ([2]; GPBP present in the reaction mixture): inhibited the incorporation of phosphate by LKB1/STRADα efficiently
GPBP phosphorylation state in myotubes ([3]; listed as SLN10): induce GPBP dephosphorylation; also recorded: induced a remarkable GPBP dephosphorylation
distribution of LKB1-GPBP aggregates ([4]; listed as SLN10): seems to induce decolocalization in GPBP and LKB1; also recorded: delocalization of LKB1 and virtual absence of kinase in granular aggregates
